# Reference: patent publication US7148405B2, “Enzymes responsible for the metabolism of cis-zeatin” (State of Oregon Acting by and through the State Board of …, priority 2000, dated 2006)
# Target: T1, cis-zeatin O-glucosyltransferase (cis-ZOG1) (Zea mays, UniProt Q93XP7)
# T1 construct: His7 (seven histidine residues, from the vector); made in house; host or cells: E. coli XL1 Blue
# T1 sequence (Q93XP7 1-467): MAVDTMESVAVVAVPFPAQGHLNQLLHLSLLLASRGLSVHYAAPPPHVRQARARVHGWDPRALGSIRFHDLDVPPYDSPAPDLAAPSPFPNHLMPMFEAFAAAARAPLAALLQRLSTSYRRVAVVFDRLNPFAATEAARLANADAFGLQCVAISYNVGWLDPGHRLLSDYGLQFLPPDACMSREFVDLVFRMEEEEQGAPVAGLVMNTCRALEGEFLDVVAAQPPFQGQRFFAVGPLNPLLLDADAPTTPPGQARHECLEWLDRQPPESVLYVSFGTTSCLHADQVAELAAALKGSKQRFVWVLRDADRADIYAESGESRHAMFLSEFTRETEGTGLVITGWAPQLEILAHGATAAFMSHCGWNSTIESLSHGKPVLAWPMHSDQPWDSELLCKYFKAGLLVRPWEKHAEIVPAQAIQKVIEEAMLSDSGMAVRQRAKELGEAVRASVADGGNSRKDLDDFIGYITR
# Experiment: Enzyme assay of recombinant cis-ZOG1 with cytokinin substrates and UDPG, products analysed by HPLC
# Type: biochemical
# Conditions: recombinant protein, UDPG as glycosyl donor, HPLC analysis
# Protocol: (§1) For FIG. 2B, 200 μL of supernatant obtained from cell culture was incubated with approximately 1 nmol of labeled zeatin and UDPG for 2 hours. For FIG. 2C, Approximately 0.4 nmole of reaction product obtained from reactions similar to FIG. 2B was incubated with β-glucosidase for 4 hours to reconvert the product to zeatin.
# 3. Isolation of Recombinant Proteins. To obtain recombinant proteins, the ORF of the selected cDNA was amplified by PCR using primers (SEQ ID NOS: 9 and 10) that generated products having an NcoI site at the 5′ and a XbaI site at the 3′ terminus. The PCR products were digested with NcoI and XbaI restriction enzymes and ligated into a p Trc 99A expression vector (Pharmacia) modified to contain seven histidine residues (CAT or CAC), and transformed into the XL1 Blue cell line. Colonies were selected on AMP-LB plates. […] After 4 hours cells were collected and frozen at −80 C overnight. Cells were resuspended in 0.5 mL of 0.2 M Tris pH 7.5 containing 1 mg/mL of lysozyme. Samples were incubated on ice for 30 minutes, frozen for 10 minutes at −80 C, thawed in cold water, and then DNAase (1 μg/10 μl supernatant) was added. After 10 minutes at room temperature, the samples were sonicated with four 15-second bursts to release proteins from cells. Soluble proteins were collected after centrifugation and used for enzyme assays.
# 4. Enzyme assays and analysis of reaction products. Enzyme activity was determined as reported previously (Dixon et al., Plant Physiol. 90:1316–1321, 1989). Briefly, a specified amount of recombinant protein, ^14C-labeled cis-zeatin (specific activity of 24 mCi/mmol), and a glycosyl donor (4 mM of UDPG) were incubated in MgCl2 (0.07 M) in 0.17 M Tris, pH 8.0. Reaction products were then analyzed by HPLC (Dixon et al., Plant Physiol. 90:1316–1321, 1989).
row,use as substrate by the recombinant enzyme (O-glucosylation),Compound
1,does not use,C/C(=C\CNc1ncnc2c1ncn2[C@@H]1O[C@H](CO)[C@@H](O)[C@H]1O)CO (relative stereo) [trans-ribosylzeatin]
2,does not use,CC(CO)CCNc1ncnc2nc[nH]c12 (stereo not drawn) [dihydrozeatin]
3,does not use,CC(CO)CCNc1ncnc2c1ncn2[C@@H]1O[C@H](CO)[C@@H](O)[C@H]1O (stereo partly drawn) [ribosyldihydrozeatin]

# The remaining lines, values behind:
row,Compound,use as substrate by the recombinant enzyme (O-glucosylation)
1,C/C(=C/CNc1ncnc2nc[nH]c12)CO [cis-zeatin],formation of O-glucosyl-cis-zeatin from cis-zeatin
2,C/C(=C\CNc1ncnc2[nH]cnc12)CO [trans-zeatin],does not use

# System: β-glucosidase
# Experiment: not given
# Conditions: reaction product incubated with β-glucosidase for 4 hours
# Protocol: as §1
row,Compound,re-conversion to cis-zeatin by β-glucosidase
1,cis-zeatin O-glucoside,re-conversion of the reaction product to cis-zeatin by β-glucosidase
